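All cell lines were grown in 96-well plates and treated with compound for 48 hours. GI50: concentration for 50% inhibition of growth. The concentration for full growth arrest is given as TGI.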
Key:
Assay in all cases: DTP human tumour cell line panel, 48 h
DLD-1 colon = tested on: DLD-1 colon
M19-MEL melanoma = tested on: M19-MEL melanoma
SNB-78 CNS = tested on: SNB-78 CNS
LXFL 529 NSCLC = tested on: LXFL 529 NSCLC
RXF-631 renal = tested on: RXF-631 renal
MDA-N = tested on: MDA-N
DMS 273 small cell lung = tested on: DMS 273 small cell lung
XF 498 CNS = tested on: XF 498 CNS
BT-549 breast = tested on: BT-549 breast

For O=C1/C=C(/c2ccc(O)cc2)[C@H](O)Cc2ccc(OC3OC(CO)C(O)C(O)C3O)cc2O1 (stereo partly drawn) (tested in a mixture with another compound), the TGI (DLD-1 colon) was over 100 µM, the TGI (M19-MEL melanoma) was over 100 µM and the TGI (SNB-78 CNS) was over 100 µM. It also gave a TGI (LXFL 529 NSCLC) of over 100 µM and a TGI (RXF-631 renal) of over 100 µM.
In the case of COC1=C(NC(C)=O)C(=O)c2nc3n(c2C1=O)CCC3, the TGI (MDA-N) is reported as 6.84 µM, the TGI (DLD-1 colon) is reported as 29.3 µM and the TGI (SNB-78 CNS) is reported as 28.9 µM. The TGI (DMS 273 small cell lung) was 34.6 µM and the TGI (XF 498 CNS) was 33.6 µM.
Work on O=C1c2cc(Br)ccc2-c2c1c1ccccc1c(=O)n2CCCCl yielded a GI50 (BT-549 breast) of 44.5 µM and a TGI (BT-549 breast) of over 100 µM.
Compound COc1ncn(C2C=C(CO)C(O)C2O)c(=O)n1 (stereo not drawn) has a TGI (DLD-1 colon) of over 100 µM, a TGI (SNB-78 CNS) of over 100 µM and a TGI (DMS 273 small cell lung) of over 100 µM. For the same compound, the TGI (LXFL 529 NSCLC) was over 100 µM.
For O=C(O)C(=O)/C=C\c1ccc(Cl)cc1, the TGI (DLD-1 colon) was over 100 µM, the TGI (M19-MEL melanoma) was over 100 µM and the TGI (SNB-78 CNS) was over 100 µM. It also gave a TGI (DMS 273 small cell lung) of over 100 µM, a TGI (XF 498 CNS) of over 100 µM and a TGI (LXFL 529 NSCLC) of over 100 µM.
In the case of N#CC1=C(N)Oc2c(sc3c(F)cccc23)C1c1ccc(Cl)cc1 (stereo not drawn), the GI50 (BT-549 breast) is reported as 3.6 µM and the TGI (BT-549 breast) is reported as 22.5 µM.
In the case of CC(CC(C)[C@H]1CCC2[C@H]3C(CC[C@@]21C)[C@@]1(C)CCC(O)C[C@H]1C[C@@H]3O)C(=O)O (stereo partly drawn), the TGI (MDA-N) is reported as over 100 µM and the TGI (BT-549 breast) is reported as over 100 µM.
In the case of COc1cc(Oc2cnc3cc(N)cc(N)c3n2)cc(OC)c1OC, the GI50 (BT-549 breast) is reported as 43.5 µM and the TGI (BT-549 breast) is reported as over 100 µM.
For CC(=N\O)/C(C)=N/O.CC(=N\O)/C(C)=N/O.[Pd], the GI50 (MDA-N) was 2.15 µM, the TGI (MDA-N) was 4.87 µM and the GI50 (BT-549 breast) was 8.49 µM. For the same compound, the TGI (BT-549 breast) was over 10 µM.
Work on CC(=O)c1c[nH]c2ccc(-c3ccnc(Nc4ccc(NC(=O)c5cccc(F)c5)c(CN5CCOCC5)c4)n3)cc12 yielded a GI50 (BT-549 breast) of 0.208 µM and a TGI (BT-549 breast) of 3.97 µM.
For O=C(c1ccc(Cl)cc1)N(C(=S)N1CCN(c2ccccc2)CC1)C1CCCCC1, the TGI (DLD-1 colon) was over 100 µM, the TGI (M19-MEL melanoma) was over 100 µM and the TGI (SNB-78 CNS) was over 100 µM. It also gave a TGI (DMS 273 small cell lung) of over 100 µM and a TGI (LXFL 529 NSCLC) of over 100 µM.
In the case of c1cc(C2O[C@H]3CCCN3[C@@H]2c2ccncc2)ccn1 (stereo partly drawn), the TGI (DLD-1 colon) is reported as over 100 µM, the TGI (M19-MEL melanoma) is reported as over 100 µM and the TGI (SNB-78 CNS) is reported as over 100 µM. For the same compound, the TGI (DMS 273 small cell lung) was over 100 µM, the TGI (XF 498 CNS) was over 100 µM and the TGI (LXFL 529 NSCLC) was over 100 µM.
Cc1cc(CC(O)(C(F)(F)F)C(F)(F)F)cc(CC(O)(C(F)(F)F)C(F)(F)F)n1 showed a TGI (MDA-N) of 13 µM.
NS(=O)(=O)OC[C@H]1O[C@@H](n2cnc3c(N[C@H]4CCc5ccccc54)ncnc32)[C@H](O)[C@@H]1O was tested, and the GI50 (BT-549 breast) was 0.0298 µM and the TGI (BT-549 breast) was 0.081 µM.
With COc1ccc(-c2ccc(/C=N/n3cnn(CN4CCN(C)CC4)c3=S)o2)c([N+](=O)[O-])c1 the GI50 (BT-549 breast) was 27.5 µM and the TGI (BT-549 breast) was 91.8 µM.
For CCCCc1c2c(nc3c1CCc1cc(C=O)c(N)nc1-3)/C(=C/c1ccccc1)CCC2, the TGI (M19-MEL melanoma) was over 100 µM, the TGI (SNB-78 CNS) was over 100 µM and the TGI (DMS 273 small cell lung) was over 100 µM. For the same compound, the TGI (XF 498 CNS) was over 100 µM and the TGI (LXFL 529 NSCLC) was over 100 µM.
For Nc1nc(Cl)cc2c1ncn2C1OC(CO)C(O)C1O (stereo not drawn), the GI50 (BT-549 breast) was over 100 µM and the TGI (BT-549 breast) was over 100 µM.
Work on CC(=O)O/N=C1\C=Cc2c(no[n+]2[O-])C1=O yielded a TGI (MDA-N) of 33.1 µM.
In the case of COC(=O)CC[C@@H](NC(=O)C(C)NC(=O)COC1C(O)C(COC(=O)CCCCCCCCCCNC(=O)c2ccc([N+](=O)[O-])c3[nH]c4cc(Br)ccc4c(=O)c23)OC(OCc2ccccc2)C1NC(C)=O)C(N)=O (stereo partly drawn), the TGI (DLD-1 colon) is reported as over 100 µM, the TGI (M19-MEL melanoma) is reported as over 100 µM and the TGI (SNB-78 CNS) is reported as over 100 µM. The TGI (DMS 273 small cell lung) was over 100 µM, the TGI (XF 498 CNS) was over 100 µM and the TGI (LXFL 529 NSCLC) was 66.3 µM.
COC1=CC(=O)c2c(O)c3c(c(O)c2C1=O)CC(C)(O)OC3 (stereo not drawn) was tested, and the TGI (MDA-N) was 3.57 µM and the TGI (BT-549 breast) was 18.7 µM.
O=C(CCCCCCCCC(=O)OCCCn1cc(C(=O)NC(=O)OCc2ccccc2)c(=O)[nH]c1=O)OCCCn1cc(C(=O)NC(=O)OCc2ccccc2)c(=O)[nH]c1=O was tested, and the TGI (DLD-1 colon) was over 100 µM, the TGI (M19-MEL melanoma) was over 100 µM and the TGI (SNB-78 CNS) was over 100 µM. For the same compound, the TGI (DMS 273 small cell lung) was over 100 µM and the TGI (RXF-631 renal) was over 100 µM.
For CCOc1cccc2cccnc12, the TGI (DLD-1 colon) was over 100 µM, the TGI (XF 498 CNS) was over 100 µM and the TGI (LXFL 529 NSCLC) was over 100 µM.
In the case of CC1=NN(C(=O)CC(=O)Nc2ccccc2)C(=O)C1N=Nc1ccc(S(N)(=O)=O)cc1 (stereo not drawn), the TGI (DLD-1 colon) is reported as over 100 µM, the TGI (SNB-78 CNS) is reported as over 100 µM and the TGI (DMS 273 small cell lung) is reported as over 100 µM. It also gave a TGI (XF 498 CNS) of over 100 µM, a TGI (LXFL 529 NSCLC) of over 100 µM and a TGI (RXF-631 renal) of over 100 µM.
For OCCOCn1nc(-c2ccccc2)nc1-c1cnccn1, the TGI (MDA-N) was over 100 µM and the TGI (BT-549 breast) was over 100 µM.
With CC(=O)NC1=NC(=O)/C(=C/c2ccc(Cl)cc2Cl)N1C the TGI (MDA-N) was over 100 µM and the TGI (BT-549 breast) was over 100 µM.
Work on CCOC(=O)C(=C=Cc1cccs1)C(=O)c1ccccc1 yielded a TGI (DLD-1 colon) of 27.8 µM, a TGI (M19-MEL melanoma) of 32.1 µM and a TGI (SNB-78 CNS) of 47.5 µM. For the same compound, the TGI (DMS 273 small cell lung) was 31.3 µM, the TGI (XF 498 CNS) was 32.6 µM and the TGI (LXFL 529 NSCLC) was 28.4 µM.
COc1ccc(CNCCN2C(=O)c3ccc4c5c(ccc(c35)C2=O)C(=O)N(CCNCc2ccc(OC)cc2)C4=O)cc1 showed a GI50 (BT-549 breast) of 0.35 µM and a TGI (BT-549 breast) of 1.03 µM.
C=CC[n+]1c(/C=C2\Sc3ccccc3N2C)sc(-c2ccccc2)c1-c1ccccc1 gave a GI50 (BT-549 breast) of 0.296 µM and a TGI (BT-549 breast) of 0.907 µM.
With O=C(/C=C/c1ccccc1O)CC(=O)/C=C/c1ccccc1O the TGI (MDA-N) was 13.3 µM and the TGI (BT-549 breast) was 45.7 µM.
Compound CC1CCC(O)/C=C/C(=O)OC(C)C(O)/C=C/C(=O)O1 (stereo not drawn) has a TGI (MDA-N) of over 100 µM and a TGI (BT-549 breast) of over 100 µM.
COC(=O)c1ccc2c(c1)[n+](=O)c(C(C)=O)c(C(F)(F)F)n2[O-] gave a GI50 (BT-549 breast) of 2.07 µM and a TGI (BT-549 breast) of 4.51 µM.
CC(C)OCC(O)COc1cc(=O)oc2ccccc12 (stereo not drawn) showed a TGI (MDA-N) of over 100 µM.
In the case of Cc1cc(C)c2nc(Nc3nc(C)c(C)c(=O)[nH]3)nc(C)c2c1, the GI50 (BT-549 breast) is reported as 2.01 µM and the TGI (BT-549 breast) is reported as 8.48 µM.
COc1cc(C=C2C(=O)OC(C)(C)OC2=O)cc(OC)c1OC gave a TGI (DLD-1 colon) of over 100 µM, a TGI (M19-MEL melanoma) of over 100 µM and a TGI (SNB-78 CNS) of over 100 µM. The TGI (DMS 273 small cell lung) was over 100 µM and the TGI (LXFL 529 NSCLC) was over 100 µM.
For CCCCC#Cc1c(I)n(C2OC(CO[Si](C)(C)C(C)(C)C)C3OC(C)(C)OC32)c(=O)[nH]c1=O (stereo not drawn), the GI50 (BT-549 breast) was 14.8 µM and the TGI (BT-549 breast) was 28.7 µM.
Work on Cn1c(=O)c2[nH]c(Nc3ccccc3)nc2n(C)c1=O yielded a TGI (MDA-N) of over 10 µM.
COC(=O)C1=C(O)C(C(=O)OC)[C@@]2(O)[C@@H](C(=O)OC)C(c3ccccc3C(F)(F)F)C[C@@H]1[C@@H]2C(=O)OC (stereo partly drawn) gave a GI50 (BT-549 breast) of 3.08 µM and a TGI (BT-549 breast) of 11.9 µM.
COc1cc(C2CC(c3ccc(C)cc3)=NN2C(C)=O)ccc1Oc1ccnc2cc(Cl)ccc12 (stereo not drawn) showed a GI50 (BT-549 breast) of 3.48 µM and a TGI (BT-549 breast) of over 100 µM.
CC(=O)OC1CC[C@@]2(C)C(CC(OC3OC(CO)C(O)C(O)C3O)[C@]3(C)C2CCC24CC23CC[C@H]4C(C)CC(O)[C@@H](O)C(C)(C)O)C1(C)C (stereo partly drawn) gave a TGI (DLD-1 colon) of over 50 µM, a TGI (M19-MEL melanoma) of 16 µM and a TGI (SNB-78 CNS) of over 5 µM. The TGI (DMS 273 small cell lung) was over 50 µM, the TGI (LXFL 529 NSCLC) was 16.1 µM and the TGI (RXF-631 renal) was over 50 µM.
COc1cc2c(cc1OC)[C@@H]1[C@H](C2=O)c2ccc([N+](=O)[O-])cc2C(=O)N1CCCBr gave a GI50 (BT-549 breast) of 1.96 µM and a TGI (BT-549 breast) of 23.9 µM.
